One assay deals with mature osteoclasts. To be noted: known non-specific chloride channel inhibitor; cited from earlier work.
A further assay relates to Raw264.7 cells. Kind of assay: RNAi transfection and bone resorption (bovine cortical bone particles, C-telopeptide Crosslaps ELISA). To be noted: 100 ng/ml RANKL, day 7, FIG. 2. The assay is classed as cell-based, mouse. As to the method: For RNAi transfection and bone resorption, the experiment was performed as follows: 1×10^4 Raw264.7 cells were seeded per 48 well and were cultured for 4 days with 100 ng/ml RANKL. The RNAi reagent was obtained from Sequitur. On day 4, the cells were transfected with 150 nM RNAi and 2 μg/ml lipofectamine overnight. The next day, the medium was replaced and 10 mg of powered bovine cortical bone particles (PelFreeze, Inc) were distributed into each well (James, I. E., et al. (1999) J. Bone Miner. Res., 14:1562-9). The particles were resuspended in […] of tissue culture media and incubated at 4° C. for 24 h storage. 200 μl bone particles were added to the precultured cells. The bone particles were allowed to settle for 10 min, and the cells were cultured for another 48 h at which time 100 μl of the supernatant was removed for the C-telopeptide Crosslaps™ ELISA analysis according to the manufacturer's instructions (Nordic Bioscience/Denmark). The absorbance was measured at 450 nm (Molecular Devices, Sunnyvale, Calif.).
For orientation: ELISA stands for enzyme-linked immunosorbent assay.

We go through two molecules from patent publication US20030215787A1, “Modulators of the CLC-7 chloride channel and methods for their identification and use in the treatment and prevention of osteoporosis and related disease states” (priority 2002, published 2003).

As to `O=C(O)c1cccnc1Nc1cccc(C(F)(F)F)c1` [niflumic acid], the “acidification of mature osteoclasts” value in the assay on mature osteoclasts is on record as “inhibits the acidification”.

B1: RANKL: recombinant soluble RANKL: extracellular domain of human RANKL (amino acids 158-317) fused to glutathione-S-transferase, expressed in E. coli (protein, UniProt O14788 158-317, looked up, fragment)
chain: SKLEAQPFAHLTINATDIPSGSHKVSLSSWYHDRGWAKISNMTFSNGKLIVNQDGFYYLYANICFRHHETSGDLATEYLQLMVYVTKTSIKIPSSHTLMKGGSTKYWSGNSEFHFYSINVGGFFKLRSGEEISIEVSNPSLLDPDQDATYFGAFKVRDID
modifications: extracellular domain GST fusion
notes: recombinant soluble RANKL: extracellular domain of human RANKL (amino acids 158-317) fused to glutathione-S-transferase, expressed in E. coli
Take B1: in the assay on Raw264.7 cells, the “increase of bone resorption” value is on record as 2.2 fold.
